Reference: US7052850B2, “Isolated human EDG-4 receptor” (priority 1997, dated 2006)

Key:
human EDG-4 = biological target: T1, human EDG-4 (Homo sapiens, UniProt O95136, F273L/I205V); experiment: Relative potency and efficacy of agonists, luciferase (SRE) reporter in 293-EBNA cells expressing recombinant human EDG-4; assay type: cell-based; details: for Rank (EMax): rank of efficacy
T1 construct: a 1059 bp open reading frame (excluding the stop codon) corresponding to the complete human edg-4 coding region; expressed in transfected cells; host or cells: 293-EBNA
Method: (§1) Transfection of EDG-4, expression, pretreatment and treatment of 293-EBNA cells expressing recombinant human EDG-4 was carried out essentially as described in “Example 11. […] Results were tabulated in Microsoft Excel, and analyzed with GraphPad Prism sotfware. […] The luciferase response was expressed as fold response, after subtracting any endogenous response in pcDNA3-transfected cells at a given concentration of compound.

HeLa cells [1] = experiment: IL-8 response (IL-8 ELISA) in HeLa cells; assay type: cell-based, human
Method: • Cells: HeLa (adenocarcinoma, human) • Media: DMEM/F12+10% FBS Adherent • 1) Cells were seeded at 0.2×10^6 cells/well in 6-well plates. • 2) Confluency of cells after 24–32 hrs was between 60–70%. B. Overnight Serum-Starvation • 1) Media was aspirated (no PBS wash). • 2) 1.5 ml 0.5% FBS media was added to each well. C. Treatments and Collection • 1) Made up all required solutions in 0.5% FBS media (control). Handling of […] for use in NF-κB experiments requires that sonication, commonly used to resuspend LPA, not be done; NF-κB may be activated by lipid peroxides created through vigorous frothing. Solutions:
D. Detection of Interleukin-8 (IL-8) using an IL-8 ELISA (Enzyme-Linked ImmunoSorbent Assay). • 1) The Quantikine Human IL-8 Immuno Assay Kit was obtained from R&D Systems (Cat. D8050). • 2) The kit and all samples were allowed to equlibrate to room temperature prior to use. • 3) All reagents were provided in the kit and prepared according to the instructions provided. • 4) The assay procedure was followed as recommended in the kit for cell culture supernatant samples. • 5) ELISA was performed on 50 μl samples of culture supernatant and duplicate samples were measured for each well. Each treatment was performed on triplicate wells. • 6) Plates were read on UV max kinetic microplate reader (Molecular Devices), set to 450 nm and correction set to 575 nm, using Wsoftmax sotware version 2.34.
• 1) Cells were seeded at 2.5×10^4 cells/well in 24-well plates. • 2) Confluency of cells after 24–32 hrs was between 60–70%. B. Overnight Serum-Starvation and PTX Pre-Treatment • 1) Media was aspirated (no PBS wash). • 2) 0.5 ml 0.5% FBS media was added to all wells not requiring PTX pre-treatment. • 3) For well requiring PTX; 0.5 ml 0.5% FBS media containing 50 ng/ml PTX (1 volume PTX (RBI Cat. P140): 1 volume DTT, incubate 37° C. for 30 minutes then dilute to 50 ng/ml) was added. C. Treatments and Collection • 1) Made up all required solutions in 0.5% FBS media (control). […] D. Refer to Procedure #1 For HeLa Cells (D).

293-EBNA cells = assay type: cell-based
Method: as §1

[2] = tested on: Human Umbilical Vein Endothelial Cells (HUVEC); experiment: IL-8 response in primary cultured HUVEC; assay type: cell-based; details: 5 μM, 6 hr
Method: Cells: HUVEC (Clonetics, Cat. CC-2519) were passaged according to supplier's instructions and used at passage 3. Cells were plated at 20,000 cells/well into 24-well plates. […] LPA induced a 3-fold IL-8 increase at this concentration. […] As shown below in FIG. 23, three cloned edge receptors respond to LPA as an agonist, and all three appear to transduce NF-κB activation in an agonist-dependent manner.

HeLa cells [3] = experiment: Cytotoxicity (viable cell count at 24 hr) in HeLa cells; details: NDGA 40 μM
Method: For this purpose, an experiment was conducted to measure cytotoxicity in parallel with IL-8 response.

HL-60 cells = experiment: IL-8 response in HL-60 cells; assay type: cell-based, human; details: 1, 6 or 24 hours, S1P or LPA up to 3 μM, TNF-α 10 ng/ml
rat EDG-4 = rat EDG-4 (Rattus norvegicus, UniProt P47752); experiment: NF-κB-tk-p4Luc luciferase reporter in 293-EBNA cells, rat EDG-4; assay type: cell-based; parameters: transient transfection with a eukaryotic expression vector expressing full-length rat edg-4 cDNA; expressed in transfected cells; host or cells: 293-EBNA; details: Assay 1; 24 hrs
From the text: First, the NF-κB response element was reconstructed in a new reporter construct (p4Luc) suitable for stable maintenance as an episome in primate cells. […] The p4-Luc reporter used the backbone of pREP4 (Invitrogen; Cat. V004-50), which contains the EBV orgin of replicaiton (EBVoni), as well as the EBNA-1 viral antigen required to maintain EBVoti containing plasmids as stable episoms in primate cells, and a prokayotic selection marker. A dominant eukaryotic selection marker for zeocin resistance was substituted for expression in pREP4. The promoter of pREP4 was then excised and replaced with a multi-cloning site for introduction of promoter/enhancer inserts. The NF-κB inser of the previous CAT reporter was subcloned into this site and all cloning junctions were sequenced to verify the structure of the plasmid, called NF-κB-tk-p4Luc.
• 1) 150 mm plates of 293-EBNA obtained from Invitrogen (Cat. R620-07) with a confluency of 18 80% were used for transfection. • 2) 6.6 μg NF-κB-tk-p4Luc reporter DNA and 6.6 μg of pC3-redg4 (expressing rat EDG-4), or pcDNA3 DNA was diluted in 500 μl OPTI-MEM (Gibco; Cat. 31985-062) • 3) 96.8 μl Lipofectamine (Gibco; Cat. 18324-020) was diluted in 500 μl of OPTI-MEM. • 4) The 2 solutions were mixed gently and the tube was incubated for 30 min at room temperature. • 5) The 293-EBNA plates were washed once with PBS and 13 ml OPTI-MEM was added to each plate, • 6) 6 ml OPTI-UMM was added to each transfection tube and this was added to a plate of 293EBNA cells. The plates were left for 4 hrs at 37° C. in a 5% CO2 incubator. • 7) After 4 his, the media was removed and replaced with frest 10% FBS media. Day 2: • 1) Transfected cells were washed, typsinized with 1× tryspin, resuspended in 10 ml media and counted. • 2) 0.02×10 ^6 cells were plated per well of a 96-well Blackview plate coated with polyD-lysine. No cells were plated in the outside wells of the 96-well plate. Two 96-well plates were seeded for each transfection. Day 3: • 1) Cells were washed with PBS and 140 μl serum-free media (SFM) added to each well. Plates were incubated in 37° C. incubator for 6 hrs. • 2) After 6 hrs, media was removed and cells treated with compounds diluted in 0.5% FBS media (140 μl added to each well).
Day 4 Luciferase Assay • 1) Luclite kit (Packard; Cat. 6016911) was used for luciferase assay. All reagents were brought to room temperature before use. • 2) Supernatant was transferred to a new 96-well plate and stored at −20 C. for rupture IL-8 measurement. • 3) 50 μl 0.5 M HEPES pH 7.8 buffer (1 mM MgCl21 mM CaCl2) was addeded to all wells of 96-well plate. Black adhesive backing (polyfitronics) was aligned to the bottom of the viewplate. • 4) Luclite substrate was made up by adding 10 ml substate diluent to 1 vial lyophilized substrate. Reconstituted substrate was kept under a dark container. 50 μl substrate was added to each well. • 5) A clear adhesive plate sealer was adjusted on to the viewplate and sealer rubbed over the plate with a Kimwipe. The plate was shaken on a plate shaker at 500 rpm for 5 seconds right side up and then upside down. A stop plate was placed on top of the blackview plate to keep it in the dark. • 6) Plates were incubated at room temperature for 30 min. • 7) After incubation, plates were counted in a 12 detector Packard Top Count on a program without dark delay.

[4] = S1P 1 μM, NDGA 40 or 10 μM, NAC 30 mM, 30 minute pre-treatment

T1 sequence (O95136 whole entry I205V/F273L): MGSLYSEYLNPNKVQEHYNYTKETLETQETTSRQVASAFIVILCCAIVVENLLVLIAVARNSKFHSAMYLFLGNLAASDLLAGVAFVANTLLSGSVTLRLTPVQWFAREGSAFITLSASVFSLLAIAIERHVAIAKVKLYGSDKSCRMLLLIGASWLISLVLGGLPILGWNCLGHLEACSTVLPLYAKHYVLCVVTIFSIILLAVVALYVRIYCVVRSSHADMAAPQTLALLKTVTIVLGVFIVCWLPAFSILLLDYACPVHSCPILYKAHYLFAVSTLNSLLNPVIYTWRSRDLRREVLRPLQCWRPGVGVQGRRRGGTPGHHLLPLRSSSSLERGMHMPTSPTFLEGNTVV
rat EDG-4, sequence (P47752 whole entry): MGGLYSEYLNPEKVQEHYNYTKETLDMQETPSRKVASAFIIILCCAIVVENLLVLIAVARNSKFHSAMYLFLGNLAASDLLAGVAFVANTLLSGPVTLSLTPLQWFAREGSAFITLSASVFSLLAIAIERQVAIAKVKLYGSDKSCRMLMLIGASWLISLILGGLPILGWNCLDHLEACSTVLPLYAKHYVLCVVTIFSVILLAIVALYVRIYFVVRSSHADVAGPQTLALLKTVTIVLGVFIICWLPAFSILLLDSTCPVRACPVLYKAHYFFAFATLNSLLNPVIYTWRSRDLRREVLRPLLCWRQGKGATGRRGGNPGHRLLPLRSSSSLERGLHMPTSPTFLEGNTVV

In the case of CCCCCCCCCCCCCCC[C@@H](O)[C@@H](N)COP(=O)(O)O [Dihydro-S1P, dihydrosphingosine 1-phosphate], the “agonist character at EDG-4” value (human EDG-4) is reported as “partial agonist” and the “Rank (EMax)” value (human EDG-4) is reported as 3.

With CCCCCCCCCCCCC/C=C/[C@@H](O)[C@@H](N)CO [sphingosine] the IL-8 induction (HeLa cells [1]; 6 hours, concentration series) was “lack of response”.

CCCCCCCCCCCCC/C=C/[C@@H](O)C(N)CO[C@@H]1O[C@H](CO)[C@@H](O)[C@H](O)[C@@H]1O (stereo partly shown) [Glucospychosin, glucopsychosine] was tested, and the “agonist character at EDG-4” value (human EDG-4) was “poor potency and efficacy”, the “Rank (EMax)” value (human EDG-4) was 4 and the “concentration at which cytotoxicity was seen” value (293-EBNA cells) was “^aCytotoxicity was seen at 10 μM or higher concentrations, preventing quantitative determination of EC50 or EMax”.

For CC(=O)N[C@@H](CS)C(=O)O [NAC], the “inhibition of IL-8 response to S1P” value (HeLa cells [1]; [4]) was “significantly inhibited”.

With Cc1ccc(C(=O)Nc2ccc(S(=O)(=O)O)c3cc(S(=O)(=O)O)cc(S(=O)(=O)O)c23)cc1NC(=O)c1cccc(NC(=O)Nc2cccc(C(=O)Nc3cc(C(=O)Nc4ccc(S(=O)(=O)O)c5cc(S(=O)(=O)O)cc(S(=O)(=O)O)c45)ccc3C)c2)c1 [Suramin] the “inhibition of IL-8 response to edelfosine” value (HeLa cells [1]; ET-18-OCH3 3 μM, PTX 50 ng/ml or suramin 1 mg/ml) was “potently inhibited” and the “effect on IL-8 response to S1P” value (HeLa cells [1]; S1P 1 μM, suramin 1 mg/ml, 30 minute pre-treatment) was “extremely effective in blunting the IL-8 response to S1P”.

CCCCCCCCCCCCC/C=C/[C@@H](O)[C@@H](N)CO[C@@H]1O[C@H](CO)[C@H](O)[C@H](O)[C@H]1O [Psychosine, psychosine] was tested, and the “agonist character at EDG-4” value (human EDG-4) was “poor potency and efficacy”, the “Rank (EMax)” value (human EDG-4) was 5 and the “IL-8 levels, increase over untreated controls” value [2] was “Marginal increases”. The “concentration at which cytotoxicity was seen” value (293-EBNA cells) was “^aCytotoxicity was seen at 10 μM or higher concentrations, preventing quantitative determination of EC50 or EMax”.

CCCCC/C=C\C/C=C\C/C=C\C/C=C\CCCC(=O)NCCO [anandamide] was tested, and the “IL-8 levels, increase over untreated controls” value [2] was “no responses”.

With CC(Cc1ccc(O)c(O)c1)C(C)Cc1ccc(O)c(O)c1 (stereo not shown) [NDGA] the toxicity (HeLa cells [3]) was “some toxicity”, the “inhibition of IL-8 response to S1P” value (HeLa cells [1]; S1P 1 μM, NDGA 40 μM) was “completely inhibited” and the “inhibition of IL-8 response to S1P” value (HeLa cells [1]; [4]) was “significantly inhibited”.

For TNF-α, the IL-8 release (HL-60 cells) was “capable of responding at 6 or 24 hr”.

For CCCCCCCCCCCCCC(=O)O[C@@H]1[C@@H](C)[C@@]2(O)[C@@H](C=C(CO)C[C@]3(O)C(=O)C(C)=C[C@@H]23)[C@H]2C(C)(C)[C@]12OC(C)=O [TPA], the “induction of NF-κB reporter” value (rat EDG-4) was “strongly induced”.
